# Measurements: patent US20220023289A1, “Application Of Pyrroloquinoline Quinone In Preparation Of Medicament Used For Preventing And Treating Acute Altitude Sickness And Acute Altitude Hypoxia Injury” (priority 2018, published 2022)
# Tests used:
# [1] = system: rats exposed to acute altitude hypoxia; assay: Protein metabolism in rats exposed to acute altitude hypoxia; format: in vivo, Wistar rat
# Procedure: (§1) Select healthy Wistar rats weight 160-200 g, half female and half male. After feeding for 3 days, these Wistar rats are randomly divided into ten groups according to their body weight, each group has 16±2 rats. The groups are divided as follows: five groups of the hypoxic exposure drug test group, respectively, are given 0.91 mg/kg, 1.83 mg/kg, 3.66 mg/kg, 7.31 mg/kg, and 14.63 mg/kg drugs. […] After continuous intragastric administration for 7 days, the animals in the hypoxic exposure group are simultaneously put into the decompression and hypoxia compound experimental chamber, the hatch is closed, and the pressure is reduced at a speed of 10 m/s. After being raised to an altitude of 6000 m and maintained for 8 hours, the speed in 10 m/s drops is reduced to normal altitude, open the hatch, and then take out the animal, collect blood samples (after standing for 1 hour, the supernatant is centrifuged and stored at −20° C.), and liver tissue samples. Detection indicator includes body weight, serum blood glucose, ATP, lactic acid, endothelin, nitric oxide, SOD, CO, MDA related to oxidative stress, and total protein, albumin, triglycerides, total cholesterol, high-density lipoprotein cholesterol, low-density lipoprotein cholesterol, glutamic pyruvic transaminase, total bilirubin, gluamic oxalacetic transaminase, serum urea nitrogen, creatinine, uric acid, lactate dehydrogenase, creatine kinase, α-hydroxybutyrate dehydrogenase; liver ATP, hepatic glycogen. Except that the formal oxygen control animal group is not put into the decompression and hypoxia compound experimental chamber, other experimental conditions and detection indicators are the same.
# (§2) Measure blood glucose, total protein, albumin, triglycerides, total cholesterol, high-density lipoprotein cholesterol, low-density lipoprotein cholesterol, glutamic-pyruvic transaminase, total bilirubin, glutamic oxalacetic transaminase, serum urea nitrogen, creatinine, uric acid, lactate dehydrogenase, creatine kinase, α-hydroxybutyrate dehydrogenase, blood homocysteine by using an automatic blood biochemical analyzer.
# [2] = system: rats exposed to acute altitude hypoxia; assay: Renal function in rats exposed to acute altitude hypoxia; format: in vivo, Wistar rat
# Procedure: as §1, §2
# [3] = Body weight of male mice in exhaustive swimming experiment; settings: 0.16 g/kg
# Procedure: Select healthy male Kunming mice weight 18-22 g. After feeding for 3 days, they are randomly divided into seven groups according to their body weight, each group has 10±1 mice. The groups are divided as follows: 5 groups of the drug test group, respectively, are given 1.32 mg/kg, 2.64 mg/kg, 5.28 mg/kg, 10.56 mg/kg, and 21.12 mg/kg drugs by gavage administration. […] After administration for 7 days, select an exhaustive swimming experiment under hypoxic conditions perform physical work ability evaluation; the observation index is an exhaustive swimming time. In the decompression and hypoxia compound laboratory chamber, decompression hypoxia is performed to an altitude of 6000 m, the swimming box is filled with water at a depth of 40 cm and the water temperature is 25° C. The animal is placed in the swimming box, and use a stopwatch to record a time from the start of swimming to exhaustion of the animal. Exhaustive swimming time is the time when an animal still cannot surface for 9 s after sinking.
# [4] = female rats, hypoxia, 0.11 g/kg
# [5] = female rats, normoxia, 0.11 g/kg
# [6] = female rats, hypoxia, 0.91 mg/kg
# [7] = female rats, hypoxia, 1.83 mg/kg
# [8] = female rats, hypoxia, 3.66 mg/kg
# [9] = female rats, hypoxia, 14.63 mg/kg
# [10] = female rats, normoxia, 3.66 mg/kg
# [11] = male rats exposed to hypoxia, low-dose
# [12] = male rats, hypoxia, 14.63 mg/kg
# [13] = female rats, hypoxia, 7.31 mg/kg
smiles,measurement,setting,value
"CC(=O)Nc1nnc(S(N)(=O)=O)s1 [Acetazolamide, reference compound]",effect on serum total protein content,[1]; female rats,has been not found
same,albumin (second column),[1]; [4],29.18 ± 1.68 g/L
same,effect on serum albumin content,"[1]; female rats, normoxia",can slightly increase
same,albumin (second column),[1]; [5],32.13 ± 0.45 g/L
same,effect on serum total protein content,[1]; male rats exposed to hypoxia,is not found
same,albumin (second column),"[1]; male rats, hypoxia, 0.11 g/kg",27.87 ± 1.140 g/L
same,Creatinine,[2]; [4],18.78 ± 1.96 µmol/L
same,Uric acid,[2]; [4],77.80 ± 17.31 µmol/L
same,effect on serum urea nitrogen and creatinine values,"[2]; female rats, normoxia",increasing
same,effect on serum uric acid level,"[2]; female rats, normoxia",reducing
same,Creatinine,[2]; [5],19.67 ± 0.32 µmol/L
same,Uric acid,[2]; [5],82.00 ± 15.10 µmol/L
same,effect on serum urea nitrogen and creatinine value,[2]; hypoxia exposed female rats,increasing
same,effect on serum uric acid level,[2]; hypoxia exposed female rats,decreasing
same,effect on serum creatinine,[2]; hypoxia exposed male rats,no significant effect
same,effect on serum urea nitrogen content,[2]; hypoxia exposed male rats,increase
same,effect on serum uric acid level,[2]; hypoxia exposed male rats,can reduce
same,Creatinine,"[2]; male rats, hypoxia, 0.11 g/kg",25.01 ± 2.48 µmol/L
same,Uric acid,"[2]; male rats, hypoxia, 0.11 g/kg",81.86 ± 11.05 µmol/L
same,body weight male 1 day,[3],21.28 ± 1.38 g
same,body weight male 7 days,[3],23.05 ± 4.41 g
"O=C(O)c1cc(C(=O)O)c2c(n1)C(=O)C(=O)c1cc(C(=O)O)[nH]c1-2 [PQQ, pyrroloquinoline quinone]",effect on serum total protein content,"[1]; female rats, high-dose",the same as the hypoxia model group
same,albumin (second column),[1]; [6],31.03 ± 0.98 g/L
same,albumin (second column),[1]; [7],29.67 ± 0.98 g/L
same,albumin (second column),[1]; [8],29.33 ± 0.62 g/L
same,albumin (second column),[1]; [9],30.16 ± 1.40 g/L
same,albumin (second column),"[1]; female rats, hypoxia, 7.3 l mg/kg",31.49 ± 0.70 g/L
same,effect on total serum protein content,"[1]; female rats, normoxia",no significant effects
same,albumin (second column),[1]; [10],30.87 ± 1.41 g/L
same,effect on serum albumin,[1]; hypoxia exposed female rats (PQQ low-dose),can reduce the effect of serum albumin in female rats increase caused by hypoxic exposure
same,effect on serum total protein content,"[1]; hypoxia exposed female rats, low-dose",can slightly reduce
same,effect on serum albumin content,[1]; [11],can reduce the effect of hypoxia exposure on the increase in serum albumin content
same,effect on serum total protein content,[1]; [11],can slightly reduce
same,effect on serum total protein content,"[1]; male rats, high-dose",the same as that of the hypoxia model group
same,albumin (second column),"[1]; male rats, hypoxia, 0.91 mg/kg",22.55 ± 2.53 g/L
same,albumin (second column),"[1]; male rats, hypoxia, 1.83 mg/kg",26.14 ± 2.04 g/L
same,albumin (second column),"[1]; male rats, hypoxia, 3.66 mg/kg",28.60 ± 1.12 g/L
same,albumin (second column),"[1]; male rats, hypoxia, 7.31 mg/kg",28.06 ± 1.31 g/L
same,albumin (second column),[1]; [12],28.38 ± 0.90 g/L
same,Creatinine,[2]; [6],14.67 ± 1.46 µmol/L
same,Serum urea nitrogen,[2]; [6],6.85 ± 0.90 mmol/L
same,Uric acid,[2]; [6],163.43 ± 12.51 µmol/L
same,Creatinine,[2]; [7],14.23 ± 1.90 µmol/L
same,Serum urea nitrogen,[2]; [7],5.98 ± 0.62 mmol/L
same,Uric acid,[2]; [7],152.71 ± 16.58 µmol/L
same,Creatinine,[2]; [8],12.71 ± 1.98 µmol/L
same,Serum urea nitrogen,[2]; [8],5.79 ± 0.62 mmol/L
same,Uric acid,[2]; [8],151.14 ± 18.48 µmol/L
same,Creatinine,[2]; [13],16.06 ± 1.19 µmol/L
same,Serum urea nitrogen,[2]; [13],6.00 ± 0.98 mmol/L
same,Uric acid,[2]; [13],152.43 ± 25.28 µmol/L
same,Creatinine,[2]; [9],13.51 ± 1.33 µmol/L
same,Serum urea nitrogen,[2]; [9],5.86 ± 0.54 mmol/L
same,Uric acid,[2]; [9],155.33 ± 21.56 µmol/L
same,"effect on serum urea nitrogen, creatinine and uric acid","[2]; female rats, normoxia",no significant effects
same,Creatinine,[2]; [10],19.37 ± 4.32 µmol/L
same,Serum urea nitrogen,[2]; [10],6.23 ± 0.36 mmol/L
same,Uric acid,[2]; [10],193.57 ± 20.80 µmol/L
same,"effect on serum urea nitrogen, creatinine and uric acid",[2]; hypoxia exposed female rats,no significant effects
same,effect on serum urea nitrogen and creatinine,[2]; hypoxia exposed male rats,no significant effect
same,effect on serum uric acid content,"[2]; hypoxia exposed male rats, low-dose",reduce serum uric acid content
same,Creatinine,"[2]; male rats, hypoxia, 0.91 mg/kg",18.44 ± 1.46 µmol/L
same,Serum urea nitrogen,"[2]; male rats, hypoxia, 0.91 mg/kg",5.13 ± 0.75 mmol/L
same,Uric acid,"[2]; male rats, hypoxia, 0.91 mg/kg",134.25 ± 19.08 µmol/L
same,Creatinine,"[2]; male rats, hypoxia, 1.83 mg/kg",21.59 ± 3.31 µmol/L
same,Serum urea nitrogen,"[2]; male rats, hypoxia, 1.83 mg/kg",5.44 ± 1.13 mmol/L
same,Uric acid,"[2]; male rats, hypoxia, 1.83 mg/kg",142.60 ± 10.78 µmol/L
same,Creatinine,"[2]; male rats, hypoxia, 3.66 mg/kg",21.90 ± 2.88 µmol/L
same,Serum urea nitrogen,"[2]; male rats, hypoxia, 3.66 mg/kg",6.37 ± 1.64 mmol/L
same,Uric acid,"[2]; male rats, hypoxia, 3.66 mg/kg",171.38 ± 14.92 µmol/L
same,Creatinine,"[2]; male rats, hypoxia, 7.31 mg/kg",22.40 ± 1.53 µmol/L
same,Serum urea nitrogen,"[2]; male rats, hypoxia, 7.31 mg/kg",5.91 ± 0.86 mmol/L
same,Uric acid,"[2]; male rats, hypoxia, 7.31 mg/kg",202.16 ± 17.13 µmol/L
same,Creatinine,[2]; [12],22.49 ± 3.00 µmol/L
same,Serum urea nitrogen,[2]; [12],6.23 ± 1.36 mmol/L
same,Uric acid,[2]; [12],182.22 ± 15.80 µmol/L
